Laboratory results taken from ChEMBL document CHEMBL1201862, “PubChem BioAssay data set” (2004).
Active and inactive are the calls of the source.

Experiments:
Protein skinhead-1 = biological target: T1, Protein skinhead-1 (Caenorhabditis elegans, UniProt P34707); type: functional
T1 sequence (P34707 whole entry): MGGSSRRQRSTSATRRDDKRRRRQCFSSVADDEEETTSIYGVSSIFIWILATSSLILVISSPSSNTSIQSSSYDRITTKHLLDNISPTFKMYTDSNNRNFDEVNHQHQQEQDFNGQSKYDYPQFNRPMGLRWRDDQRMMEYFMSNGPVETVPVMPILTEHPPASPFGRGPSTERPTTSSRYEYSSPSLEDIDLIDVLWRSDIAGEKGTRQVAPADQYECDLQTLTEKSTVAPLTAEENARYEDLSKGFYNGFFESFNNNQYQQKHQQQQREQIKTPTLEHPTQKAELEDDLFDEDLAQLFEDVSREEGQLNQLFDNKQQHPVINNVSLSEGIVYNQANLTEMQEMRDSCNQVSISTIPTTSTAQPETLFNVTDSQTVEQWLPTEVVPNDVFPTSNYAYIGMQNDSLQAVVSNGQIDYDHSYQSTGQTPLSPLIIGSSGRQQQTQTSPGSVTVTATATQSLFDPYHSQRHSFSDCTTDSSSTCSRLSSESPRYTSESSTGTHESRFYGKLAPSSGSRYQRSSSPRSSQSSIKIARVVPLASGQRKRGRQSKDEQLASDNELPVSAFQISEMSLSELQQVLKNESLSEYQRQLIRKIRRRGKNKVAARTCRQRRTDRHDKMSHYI

[1] = Cytotoxicity screening for potential Inhibitors of Bacterial Capsule Biogenesis. [Related pubchem assays (depositor defined):AID488970]; type: functional
HEK293 [2] = test: cells; type: functional, cell-based; conditions: Homo sapiens
HEK293 [3] = test: cells; conditions: Homo sapiens
[4] = A549 cell cytotoxicity, dose response, cytotoxicity control, plate reader, cherry-pick, antagonist series (AID 743412); type: functional, cell-based
[5] = viability of PTEN-deleted HCT116 cells – cell-based, HCT116 PTEN knockout, dose response (AID 1047); type: functional;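 note: HCT116 colon tumor cells with PTEN knocked out; cells exposed to compound for 60 hours before readout; potency for loss of cell viability measured by luminescence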
HEK293 [6] = test: inhibition of NOD1-driven NF-kB reporter – cell-based, luminescence, uHTS, primary screen (AID 1578); type: functional; conditions: Homo sapiens
[7] = biological target: Nucleotide-binding oligomerization domain-containing protein 2 (Homo sapiens, UniProt Q9HC29); test: PubChem AID 2334; type: functional
HEK293 [8] = test: cells; type: functional, cell-based; conditions: Homo sapiens; remark: listed apart in the source
[9] = biological target: T2, Nucleotide-binding oligomerization domain-containing protein 1 (Homo sapiens, UniProt Q9Y239); test: blockers of NOD1 pathway activity – revised, SAR follow-up (AID 2333); type: functional
T2 sequence (Q9Y239 whole entry): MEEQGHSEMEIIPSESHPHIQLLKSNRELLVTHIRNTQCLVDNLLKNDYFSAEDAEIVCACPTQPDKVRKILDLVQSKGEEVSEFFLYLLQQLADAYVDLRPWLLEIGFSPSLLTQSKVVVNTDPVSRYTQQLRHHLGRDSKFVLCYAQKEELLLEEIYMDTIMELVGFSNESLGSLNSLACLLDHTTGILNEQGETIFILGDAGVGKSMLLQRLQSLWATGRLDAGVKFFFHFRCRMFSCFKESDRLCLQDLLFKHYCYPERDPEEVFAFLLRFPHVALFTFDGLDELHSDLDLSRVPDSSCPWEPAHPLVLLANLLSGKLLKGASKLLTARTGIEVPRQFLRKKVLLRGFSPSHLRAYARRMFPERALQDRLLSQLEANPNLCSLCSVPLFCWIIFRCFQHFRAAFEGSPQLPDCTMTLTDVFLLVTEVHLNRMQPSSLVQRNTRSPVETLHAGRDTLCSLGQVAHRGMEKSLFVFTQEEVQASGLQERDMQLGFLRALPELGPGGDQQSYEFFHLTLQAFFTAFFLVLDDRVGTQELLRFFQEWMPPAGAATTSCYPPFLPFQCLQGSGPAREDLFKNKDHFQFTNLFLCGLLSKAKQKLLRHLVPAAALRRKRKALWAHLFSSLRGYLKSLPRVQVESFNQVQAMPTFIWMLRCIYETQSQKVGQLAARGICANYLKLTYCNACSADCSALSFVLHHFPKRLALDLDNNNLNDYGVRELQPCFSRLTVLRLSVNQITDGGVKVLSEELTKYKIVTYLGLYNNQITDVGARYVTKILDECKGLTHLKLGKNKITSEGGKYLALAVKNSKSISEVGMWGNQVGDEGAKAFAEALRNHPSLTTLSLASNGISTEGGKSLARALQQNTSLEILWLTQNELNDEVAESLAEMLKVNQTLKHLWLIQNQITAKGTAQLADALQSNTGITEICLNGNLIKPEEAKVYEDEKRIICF

Tumor necrosis factor = Tumor necrosis factor (Homo sapiens, UniProt P01375); test: analog potency on TNFa NF-kB signaling – cell-based, revised, SAR follow-up (AID 2337); type: functional
[10] = viability of HCT116 lacking mutant beta-catenin – cell-based, human colon tumor, dose response (AID 1045); type: functional;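 note: HCT116 colon tumor cells with beta catenin knocked out; cells exposed to compound for 60 hours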
[11] = blockers of bursicon-stimulated LGR2 cAMP reporter – cell-based, HEK293, CRE-luciferase reporter, cherry pick, set 2, dose response (AID 743343); type: functional;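 note: transfected cells were stimulated with diluted bursicon conditioned medium after compound addition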
[12] = viability loss of HPDE-C7K cells – cell-based, fluorescence, HTS, primary screen (AID 431); type: functional; conditions: Homo sapiens
[13] = blockade of melanocortin 4 receptor signaling – cell-based, plate reader, cherry pick, counter-screen for LGR2 antagonist project, dose response (AID 743444); type: functional;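 note: transfected HEK 293 cells stimulated with alpha-MSH peptide; potency of inhibitors of the alpha-MSH evoked signal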
[14] = HPDE-C7 pancreatic duct cell viability loss – fluorescence, HTS (AID 430); type: functional, cell-based; conditions: Homo sapiens
HEK293 [15] = test: NOD2 signaling inhibitors in MDP-stimulated cells, cell-based, uHTS, luminescence (AID 2001); type: functional; conditions: Homo sapiens
Paired box protein Pax-8 = Paired box protein Pax-8 (Homo sapiens, UniProt Q06710); test: PAX8 transcriptional activity inhibition in RMG-I – RMG-I cells, luciferase, cherry-pick, dose response (AID 687027); type: functional, cell-based;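 note: luciferase reporter driven by Pax8 target thyroperoxidase promoter measured by SteadyGlo luminescence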
[16] = biological target: T3, Ubiquitin-conjugating enzyme E2 N (Homo sapiens, UniProt P61088); type: functional
T3 sequence (P61088 whole entry): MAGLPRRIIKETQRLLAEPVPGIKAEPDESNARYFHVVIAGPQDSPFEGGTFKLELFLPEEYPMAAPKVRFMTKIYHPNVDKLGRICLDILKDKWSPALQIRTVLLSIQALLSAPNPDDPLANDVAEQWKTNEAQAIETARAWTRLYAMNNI

[17] = biological target: T3, Ubiquitin-conjugating enzyme E2 N; type: functional; remark: listed apart in the source
Bcl-2-related protein A1 = biological target: T4, Bcl-2-related protein A1 (Mus musculus, UniProt Q07440); type: functional;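 note: confirmatory dose–response counterscreen on Bfl-1, used to check hits from a UBC13 polyubiquitin inhibitor campaign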
T4 sequence (Q07440 whole entry): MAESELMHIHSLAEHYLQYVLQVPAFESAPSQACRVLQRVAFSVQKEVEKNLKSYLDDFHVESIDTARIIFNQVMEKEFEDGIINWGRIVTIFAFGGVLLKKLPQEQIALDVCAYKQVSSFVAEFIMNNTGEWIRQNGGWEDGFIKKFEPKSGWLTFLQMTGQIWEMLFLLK

Chain of Nucleotide-binding oligomerization domain-containing protein 2 (Q9HC29 whole entry, the tested form may be a part): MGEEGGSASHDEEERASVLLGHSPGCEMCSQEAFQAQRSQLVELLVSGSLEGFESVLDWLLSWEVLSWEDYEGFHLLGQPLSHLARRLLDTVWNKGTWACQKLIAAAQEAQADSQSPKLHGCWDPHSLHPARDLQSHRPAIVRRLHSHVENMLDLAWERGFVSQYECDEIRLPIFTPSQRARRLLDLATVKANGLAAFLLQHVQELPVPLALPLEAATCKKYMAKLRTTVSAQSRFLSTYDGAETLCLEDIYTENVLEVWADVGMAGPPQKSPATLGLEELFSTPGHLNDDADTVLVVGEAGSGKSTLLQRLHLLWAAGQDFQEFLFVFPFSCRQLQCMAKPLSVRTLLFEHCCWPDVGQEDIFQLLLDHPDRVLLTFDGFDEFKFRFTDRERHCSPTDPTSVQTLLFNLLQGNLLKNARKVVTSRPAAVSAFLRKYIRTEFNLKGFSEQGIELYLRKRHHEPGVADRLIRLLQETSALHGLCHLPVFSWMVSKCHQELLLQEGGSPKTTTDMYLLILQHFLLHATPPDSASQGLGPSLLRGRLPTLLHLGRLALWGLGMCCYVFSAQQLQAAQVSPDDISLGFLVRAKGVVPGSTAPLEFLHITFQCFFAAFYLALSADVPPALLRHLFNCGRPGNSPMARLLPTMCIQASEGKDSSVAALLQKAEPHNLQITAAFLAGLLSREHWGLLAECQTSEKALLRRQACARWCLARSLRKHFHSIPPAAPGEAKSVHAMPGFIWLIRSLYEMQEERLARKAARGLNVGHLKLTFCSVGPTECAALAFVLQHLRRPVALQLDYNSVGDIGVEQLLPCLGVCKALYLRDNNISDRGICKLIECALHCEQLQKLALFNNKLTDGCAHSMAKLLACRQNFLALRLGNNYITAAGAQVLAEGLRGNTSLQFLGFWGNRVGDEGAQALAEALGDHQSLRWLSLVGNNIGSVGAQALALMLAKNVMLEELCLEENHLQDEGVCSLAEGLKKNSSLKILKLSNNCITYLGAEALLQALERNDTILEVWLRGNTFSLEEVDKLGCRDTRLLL
Chain of Tumor necrosis factor (P01375 whole entry): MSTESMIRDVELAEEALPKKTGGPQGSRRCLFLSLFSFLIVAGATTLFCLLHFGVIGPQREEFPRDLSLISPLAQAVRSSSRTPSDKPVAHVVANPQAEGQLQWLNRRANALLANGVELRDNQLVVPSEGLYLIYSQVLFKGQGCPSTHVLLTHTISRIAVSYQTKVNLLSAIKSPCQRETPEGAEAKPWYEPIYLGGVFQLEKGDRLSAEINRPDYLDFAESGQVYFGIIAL
Chain of Paired box protein Pax-8 (Q06710 whole entry): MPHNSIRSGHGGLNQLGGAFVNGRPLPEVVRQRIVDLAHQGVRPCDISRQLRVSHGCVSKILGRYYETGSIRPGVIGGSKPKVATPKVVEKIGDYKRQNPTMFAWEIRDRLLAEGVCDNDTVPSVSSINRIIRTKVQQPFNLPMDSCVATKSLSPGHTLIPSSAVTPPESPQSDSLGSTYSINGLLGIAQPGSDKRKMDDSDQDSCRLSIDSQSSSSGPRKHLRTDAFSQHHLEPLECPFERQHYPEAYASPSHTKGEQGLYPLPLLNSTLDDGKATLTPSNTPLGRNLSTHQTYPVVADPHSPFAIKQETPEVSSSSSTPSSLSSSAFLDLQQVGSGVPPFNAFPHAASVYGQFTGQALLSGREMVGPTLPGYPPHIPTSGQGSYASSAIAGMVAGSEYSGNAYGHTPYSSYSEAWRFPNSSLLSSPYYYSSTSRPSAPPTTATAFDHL

COc1ccc2nc(NC(=O)c3ccc(Br)s3)sc2c1
active: CC50 [1] > 100 µM
inactive: IC50 (Protein skinhead-1) > 100 µM

CCCc1nc(SCC(=O)N2CCC(Cc3ccccc3)CC2)c2c(=O)n(C)c(=O)n(C)c2n1
active: IC50 (HEK293 [3]) 19.3 µM | EC50 [5] 33.6 µM | EC50 (HEK293 [6]) 5.46 µM | IC50 [7] 11.4 µM | IC50 (HEK293 [8]) 8.67 µM | IC50 [9] 12.2 µM | IC50 (Tumor necrosis factor) 11 µM | EC50 [10] 33.7 µM | AC50 [11] 18.6 µM | EC50 [12] 6.62 µM | AC50 [13] 17.9 µM | EC50 [14] 6.8 µM | IC50 (HEK293 [15]) 5.22 µM
inactive: IC50 (HEK293 [2]) > 20 µM | AC50 [4] > 52 µM

COC(=O)c1c(NC(=O)C(=O)N2CCCCC2)sc2c1CC(C)(C)OC2
inactive: IC50 (HEK293 [3]) > 20 µM | IC50 [7] > 20 µM | IC50 [9] > 20 µM | IC50 (Tumor necrosis factor) > 20 µM

O=C(Nc1cccc(C2=NCCN2)c1)Nc1cccc(C2=NCCN2)c1 [IMIDOCARB DIPROPIONATE]
active: AC50 (Paired box protein Pax-8) 0.879 µM | IC50 [16] 13.2 µM | IC50 [17] 10.6 µM | CC50 [1] > 100 µM
inactive: IC50 (Bcl-2-related protein A1) > 20 µM
